The values that follow come from patent US20230174488A1 (priority 2020, published 2023).

A word on the IC50: it is the midpoint of a concentration-inhibition curve.

In the test the target is SARS-CoV-2 M^PRO (Severe acute respiratory syndrome coronavirus 2, UniProt P0DTD1). The experiment in a line: biochemical. Particulars: In vitro potency data; 30 min pre-incubation, 25 nM M^pro, 25 µM substrate; read-out: IC50. The format is biochemical.

A value given as a limit tells only on which side of the number the result lay.

For the compound `CC(C(=O)NC1CCC(F)(F)CC1)(c1cncnc1)N(C(=O)CCl)c1ccc(-c2ccno2)cc1` (single isomer, unassigned) [INSCoV-601P(1B), 2-(2-Chloro-N-(4-(isoxazol-5-yl)phenyl)acetamido)-N-(4,4-difluorocyclohexyl)-2-(pyrimidin-5-yl)propanamide], the IC50 was determined as 13.7 µM.

For the compound `O=C(N[C@H]1CCC(F)(F)C1)C(c1cncnc1)N(C(=O)CCl)c1ccc(-c2cncs2)cc1` (single isomer, unassigned) [INSCoV-601S(1B)], the IC50 was 0.98 µM. As to `O=C(NC1CCC(F)(F)CC1)[C@H](c1cncnc1)N(C(=O)[C@H](F)Cl)c1ccc(-c2cncs2)cc1` (single isomer, unassigned) [INSCoV-614(1A), 2-Chloro-N-(2-((4,4-difluorocyclohexyl)amino)-2-oxo-1-(pyrimidin-5-yl)ethyl)-2-fluoro-N-(4-(thiazol-5-yl)phenyl)acetamide], the IC50 was > 25 µM. The value for `O=C(NC1CCC(F)(F)CC1)[C@H](c1cncnc1)N(C(=O)[C@H](F)Cl)c1ccc(-c2cncs2)cc1` (single isomer, unassigned) [INSCoV-614(2A), 2-Chloro-N-(2-((4,4-difluorocyclohexyl)amino)-2-oxo-1-(pyrimidin-5-yl)ethyl)-2-fluoro-N-(4-(thiazol-5-yl)phenyl)acetamide] was 6.94 µM; that for `O=C(NC1CCC(F)(F)CC1)[C@H](c1cncnc1)N(C(=O)[C@H](F)Cl)c1ccc(-c2cncs2)cc1` (single isomer, unassigned) [INSCoV-614(2B), 2-Chloro-N-(2-((4,4-difluorocyclohexyl)amino)-2-oxo-1-(pyrimidin-5-yl)ethyl)-2-fluoro-N-(4-(thiazol-5-yl)phenyl)acetamide] was 1.7 µM; that for `O=C(NC1CCC(F)(F)CC1)[C@@H](c1cncnc1)N(C(=O)[C@H](F)Cl)c1ccc(-c2ccno2)cc1` (single isomer, unassigned) [INSCoV-614A(1A), 2-Chloro-N-(2-((4,4-difluorocyclohexyl)amino)-2-oxo-1-(pyrimidin-5-yl)ethyl)-2-fluoro-N-(4-(isoxazol-5-yl)phenyl)acetamide] was 6.74 µM. For `O=C(NC1CCC(F)(F)CC1)[C@@H](c1cncnc1)N(C(=O)[C@H](F)Cl)c1ccc(-c2ccno2)cc1` (single isomer, unassigned) [INSCoV-614A(1B), 2-Chloro-N-(2-((4,4-difluorocyclohexyl)amino)-2-oxo-1-(pyrimidin-5-yl)ethyl)-2-fluoro-N-(4-(isoxazol-5-yl)phenyl)acetamide], the IC50 was determined as 5.05 µM. With `O=C(NC1CCC(F)(F)CC1)[C@@H](c1cncnc1)N(C(=O)[C@H](F)Cl)c1ccc(-c2ccno2)cc1` (single isomer, unassigned) [INSCoV-614A(2B), 2-Chloro-N-(2-((4,4-difluorocyclohexyl)amino)-2-oxo-1-(pyrimidin-5-yl)ethyl)-2-fluoro-N-(4-(isoxazol-5-yl)phenyl)acetamide] the figure was 9.11 µM. With `C=CS(=O)(=O)N(c1ccc(C(C)(C)C)cc1)[C@@H](C(=O)NC1CCCCC1)c1cccnc1` [INSCoV-110-1] the figure was 36 µM; with `CC(C)(C)c1ccc(N(C(=O)CCl)C(C(=O)NC2CCCCC2)c2cccnc2)cc1` (stereo not drawn) [INSCoV-110A, 2-(4-tert-butyl-N-(2-chloroacetyl)anilino)-N-cyclohexyl-2-(3-pyridyl)acetamide], 1.14 µM; with `CC(C)(C)c1ccc(N(C(=O)C=O)C(C(=O)NC2CCCCC2)c2cccnc2)cc1` (stereo not drawn) [INSCoV-110D], > 50 µM. Turning to `O=C(NC1CCCCC1)C(c1cncnc1)N(C(=O)CCl)c1ccc(-c2cnco2)cc1` (stereo not drawn) [INSCoV-501A, 2-Chloro-N-(2-(Cyclohexylamino)-2-oxo-1-(Pyrimidin-5-yl)Ethyl)-N-(4-(Oxazol-5-yl)Phenyl)Acetamide], the IC50 was determined as 0.29 µM. On to `O=C(NC1CCS(=O)(=O)CC1)C(c1cncnc1)N(C(=O)CCl)c1ccc(-c2cnco2)cc1` (stereo not drawn) [INSCoV-501B, 2-Chloro-N-(2-((1,1-Dioxidotetrahydro-2H-Thiopyran-4-yl)Amino)-2-Oxo-1-(Pyrimidin-5-yl)Ethyl)-N-(4-(Oxazol-5-yl)Phenyl)Acetamide], for which the IC50 came to 0.6 µM.

`Cc1ccc(S(=O)(=O)CNC(=O)C(c2cncnc2)N(C(=O)CCl)c2ccc(-c3cnco3)cc2)cc1` (stereo not drawn) [INSCoV-501D]: the IC50 stood at 2.51 µM.

For `O=C(NCCc1ccccc1)C(c1cncnc1)N(C(=O)CCl)c1ccc(-c2cnco2)cc1` (stereo not drawn) [INSCoV-501E], the IC50 was 0.6 µM.

With `Cc1cc(-c2cnco2)ccc1N(C(=O)CCl)C(C(=O)NC1CCCCC1)c1cncnc1` (stereo not drawn) [INSCoV-501G], the IC50 came out at 0.26 µM. With `CCS(=O)(=O)N1CCC(NC(=O)C(c2cncnc2)N(C(=O)CCl)c2ccc(-c3cnco3)cc2)CC1` (stereo not drawn) [INSCoV-501H(1)] the figure was 0.63 µM; with `O=C(NC1CCN(S(=O)(=O)C2CC2)CC1)C(c1cncnc1)N(C(=O)CCl)c1ccc(-c2cnco2)cc1` (stereo not drawn) [INSCoV-501H], 0.72 µM.

As for `O=C(NC1CCC(F)(F)CC1)C(c1cncnc1)N(C(=O)CCl)c1ccc(-c2cnco2)cc1` (stereo not drawn) [INSCoV-501I, 2-Chloro-N-(2-((4,4-difluorocyclohexyl)amino)-2-oxo-1-(pyrimidin-5-yl)ethyl)-N-(4-(oxazol-5-yl)phenyl)acetamide], the IC50 was determined as 0.39 µM. With `O=C(NC1CCCCC1)C(c1cnccn1)N(C(=O)CCl)c1ccc(-c2cnco2)cc1` (stereo not drawn) [INSCoV-501L] the figure was 0.4 µM; with `O=C(NC1CCS(=O)(=O)CC1)C(c1cnccn1)N(C(=O)CCl)c1ccc(-c2cnco2)cc1` (stereo not drawn) [INSCoV-501M, 2-Chloro-N-(2-((1,1-Dioxidotetrahydro-2H-Thiopyran-4-yl)Amino)-2-Oxo-1-(Pyrazin-2-yl)Ethyl)-N-(4-(Oxazol-5-yl)Phenyl)Acetamide], 0.45 µM. Take `Cc1ccc(S(=O)(=O)CNC(=O)C(c2cnccn2)N(C(=O)CCl)c2ccc(-c3cnco3)cc2)cc1` (stereo not drawn) [INSCoV-501O, 2-Chloro-N-(4-(Oxazol-5-yl)Phenyl)-N-(2-Oxo-1-(Pyrazin-2-yl)-2-((Tosylmethyl)Amino)Ethyl)Acetamide]: the IC50 stood at 1.5 µM. With `O=C(NCCc1ccccc1)C(c1cnccn1)N(C(=O)CCl)c1ccc(-c2cnco2)cc1` (stereo not drawn) [INSCoV-501P, 2-Chloro-N-(4-(Oxazol-5-vl)Phenyl)-N-(2-Oxo-2-(Phenethylamino)-1-(Pyrazin-2-yl)Ethyl)Acetamide] the figure was 0.56 µM.

Regarding `CCS(=O)(=O)N1CCC(NC(=O)C(c2cnccn2)N(C(=O)CCl)c2ccc(-c3cnco3)cc2)CC1` (stereo not drawn) [INSCoV-501R(1), 2-Chloro-N-(2-((1-(Ethylsulfonyl)Piperidin-4-yl)Amino)-2-Oxo-1-(Pyrazin-2-yl)Ethyl)-N-(4-(Oxazol-5-yl)Phenyl)Acetamide], the 50% inhibitory concentration (IC50) worked out at 0.57 µM. Regarding `O=C(NC1CCN(S(=O)(=O)C2CC2)CC1)C(c1cnccn1)N(C(=O)CCl)c1ccc(-c2cnco2)cc1` (stereo not drawn) [INSCoV-501R, 2-Chloro-N-(2-((1-(Cyclopropylsulfonyl)Piperidin-4-yl)Amino)-2-Oxo-1-(Pyrazin-2-yl)Ethyl)-N-(4-(Oxazol-5-yl)Phenyl)Acetamide], the IC50 came to 0.48 µM. In the case of `O=C(NC1CCC(F)(F)CC1)C(c1cnccn1)N(C(=O)CCl)c1ccc(-c2cnco2)cc1` (stereo not drawn) [INSCoV-501S, 2-Chloro-N-(2-((4,4-Difluorocyclohexyl)Amino)-2-Oxo-1-(Pyrazin-2-yl)Ethyl)-N-(4-(Oxazol-5-yl)Phenyl)Acetamide], the IC50 was 0.24 µM. The value for `O=C(NC1CCCCC1)C(c1cccnc1)N(C(=O)CCl)c1ccc(-c2cnco2)cc1` (stereo not drawn) [INSCoV-501] was 0.68 µM. With `Cc1ccc(CN(C(=O)CCl)C(C(=O)NC2CCCCC2)c2cccnc2)cc1` (stereo not drawn) [INSCoV-502] the figure was 4.82 µM; with `Cc1ccccc1CCN(C(=O)CCl)C(C(=O)NC1CCCCC1)c1cccnc1` (stereo not drawn) [INSCoV-503A], 2.63 µM. For `Cc1cccc(CCN(C(=O)CCl)C(C(=O)NC2CCCCC2)c2cccnc2)c1` (stereo not drawn) [INSCoV-503B], the IC50 was 1 µM. With `Cc1ccc(CCN(C(=O)CCl)C(C(=O)NC2CCCCC2)c2cccnc2)cc1` (stereo not drawn) [INSCoV-503C] the figure was 1.38 µM; with `O=C(NC1CCCCC1)C(c1cccnc1)N(CCc1ccccc1Cl)C(=O)CCl` (stereo not drawn) [INSCoV-503D], 2.65 µM; with `O=C(NC1CCCCC1)C(c1cccnc1)N(CCc1cccc(Cl)c1)C(=O)CCl` (stereo not drawn) [INSCoV-503E], 0.66 µM. With `O=C(NC1CCCCC1)C(c1cccnc1)N(CCc1ccc(Cl)cc1)C(=O)CCl` (stereo not drawn) [INSCoV-503F] the figure was 0.94 µM; with `O=C(NC1CCCCC1)C(c1cccnc1)N(CCc1ccccc1F)C(=O)CCl` (stereo not drawn) [INSCoV-503G], 2.3 µM; with `O=C(NC1CCCCC1)C(c1cccnc1)N(CCc1ccccc1)C(=O)CCl` (stereo not drawn) [INSCoV-503], 0.98 µM.

For the compound `O=C(NC1CCCCC1)C(c1cccnc1)N(Cc1ccc(F)cc1)C(=O)CCl` (stereo not drawn) [INSCoV-504], the IC50 is 16.3 µM. With `COc1ccccc1CN(C(=O)CCl)C(C(=O)NC1CCCCC1)c1cccnc1` (stereo not drawn) [INSCoV-505] the figure was 8.65 µM; with `O=C(NC1CCCCC1)C(c1cccnc1)N(C(=O)CCl)c1ccc(Br)cc1F` (stereo not drawn) [INSCoV-507], 2.13 µM; with `O=C(NC1CCCCC1)C(c1cccnc1)N(CCc1c[nH]c2ccncc12)C(=O)CCl` (stereo not drawn) [INSCoV-516], 1.18 µM. For `N#Cc1cc(OC(F)(F)F)ccc1N(C(=O)CCl)[C@@H](C(=O)NC1CCCCC1)c1cccnc1` [INSCoV-517(1)], the IC50 worked out at 0.08 µM. For `N#Cc1cc(OC(F)(F)F)ccc1N(C(=O)CCl)[C@H](C(=O)NC1CCCCC1)c1cccnc1` [INSCoV-517(2)], the IC50 turned out to be 1.94 µM. The value for `N#Cc1cc(OC(F)(F)F)ccc1N(C(=O)CCl)C(C(=O)NC1CCC(F)(F)CC1)c1cnccn1` (stereo not drawn) [INSCoV-517B] was 0.17 µM; that for `O=C(NC1CCCCC1)C(c1cccnc1)N(C(=O)CCl)c1ccc(N2CCCC2)cc1` (stereo not drawn) [INSCoV-523] was 0.98 µM. As to `Cc1ccc(S(=O)(=O)C(C)NC(=O)C(c2cccnc2)N(C(=O)CCl)c2ccc(C(C)(C)C)cc2)cc1` (stereo not drawn) [INSCoV-531], the IC50 came to 12.7 µM.
